Results: ChEMBL document CHEMBL3608284, “C4 phenyl aporphines with selective h5-HT(2B) receptor affinity” (Bioorg Med Chem Lett, 2015)

What was measured:
[1] = target: 5-hydroxytryptamine receptor 1B (Homo sapiens, UniProt P28222); test: Displacement of [3H]GR125743 from 5HT1B receptor (unknown origin) at 10 uM
[2] = target: D(2) dopamine receptor (Homo sapiens) (UniProt P14416); test: Binding affinity to dopamine D2 receptor (unknown origin) at 10 uM
[3] = target: Histamine H3 receptor (Homo sapiens) (UniProt Q9Y5N1); test: Binding affinity to histamine H3 receptor (unknown origin) at 10 uM
[4] = target: T1, 5-hydroxytryptamine receptor 3A (Homo sapiens) (UniProt P46098); test: Displacement of [3H]LY278584 from 5HT3 receptor (unknown origin) at 10 uM
T1 sequence (whole entry): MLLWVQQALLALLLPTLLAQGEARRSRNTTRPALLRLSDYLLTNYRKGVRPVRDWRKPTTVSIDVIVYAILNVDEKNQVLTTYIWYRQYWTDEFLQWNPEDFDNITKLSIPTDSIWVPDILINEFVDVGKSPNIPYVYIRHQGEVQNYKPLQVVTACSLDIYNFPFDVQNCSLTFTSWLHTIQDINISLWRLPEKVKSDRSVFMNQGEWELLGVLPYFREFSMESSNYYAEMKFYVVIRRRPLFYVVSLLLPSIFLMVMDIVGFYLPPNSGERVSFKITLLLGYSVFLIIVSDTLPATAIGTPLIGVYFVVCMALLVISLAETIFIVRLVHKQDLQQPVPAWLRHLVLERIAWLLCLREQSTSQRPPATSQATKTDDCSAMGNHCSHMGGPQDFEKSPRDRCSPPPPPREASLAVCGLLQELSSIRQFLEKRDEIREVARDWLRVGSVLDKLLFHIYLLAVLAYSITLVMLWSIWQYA

Rattus norvegicus = species on record: Rattus norvegicus; test: Binding affinity to benzodiazepine receptor in rat brain; format: tissue-based; conditions: concentration not given here
[5] = target: 5-hydroxytryptamine receptor 1D (Homo sapiens) (UniProt P28221); test: Displacement of [3H]GR125743 from 5HT1D receptor (unknown origin) at 10 uM
[6] = target: Cannabinoid receptor 2 (Homo sapiens) (UniProt P34972); test: Binding affinity to CB2 receptor (unknown origin) at 10 uM
[7] = target: GABA-A receptor; agonist GABA site (Homo sapiens) (UniProt P14867+P47870+P28472+P48169+P34903+P18505+P47869+P31644+Q16445); test: Binding affinity to GABAA receptor (unknown origin) at 10 uM; format: protein-complex assay
[8] = target: Sodium-dependent dopamine transporter (Homo sapiens) (UniProt Q01959); test: Binding affinity to DAT (unknown origin) at 10 uM
[9] = target: T2, 5-hydroxytryptamine receptor 2C (Homo sapiens) (UniProt P28335); test: Displacement of [3H]mesulergine from 5HT2C receptor (unknown origin) at 10 uM
T2 sequence (whole entry): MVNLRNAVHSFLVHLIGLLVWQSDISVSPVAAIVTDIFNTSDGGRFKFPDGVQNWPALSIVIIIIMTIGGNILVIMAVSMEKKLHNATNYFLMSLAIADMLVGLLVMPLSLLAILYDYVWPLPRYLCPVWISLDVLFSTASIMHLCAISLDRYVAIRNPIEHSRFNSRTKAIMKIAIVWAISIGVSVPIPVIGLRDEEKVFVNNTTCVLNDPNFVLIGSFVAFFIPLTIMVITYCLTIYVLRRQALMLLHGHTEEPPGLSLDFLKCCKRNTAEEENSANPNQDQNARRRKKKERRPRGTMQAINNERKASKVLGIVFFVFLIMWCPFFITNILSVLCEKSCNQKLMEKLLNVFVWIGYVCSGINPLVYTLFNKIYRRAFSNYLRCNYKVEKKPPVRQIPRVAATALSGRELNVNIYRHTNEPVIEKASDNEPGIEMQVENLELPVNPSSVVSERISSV

[10] = target: Alpha-2C adrenergic receptor (Homo sapiens, UniProt P18825); test: Binding affinity to alpha2C adrenoceptor (unknown origin)
[11] = target: 5-hydroxytryptamine receptor 6 (Homo sapiens, UniProt P50406); test: Binding affinity to 5HT6 receptor (unknown origin)
[12] = target: Muscarinic acetylcholine receptor M2 (Homo sapiens) (UniProt P08172); test: Binding affinity to muscarinic M2 receptor (unknown origin) at 10 uM
[13] = target: 5-hydroxytryptamine receptor 2B (Homo sapiens, UniProt P41595); test: Displacement of [3H]LSD from 5HT2B receptor (unknown origin)
[14] = target: D(3) dopamine receptor (Homo sapiens) (UniProt P35462); test: Binding affinity to dopamine D3 receptor (unknown origin) at 10 uM
[15] = target: Sodium-dependent serotonin transporter (Homo sapiens) (UniProt P31645); test: Binding affinity to SERT (unknown origin) at 10 uM
[16] = target: Alpha-1B adrenergic receptor (Homo sapiens) (UniProt P35368); test: Binding affinity to alpha1B adrenoceptor (unknown origin) at 10 uM
[17] = target: Alpha-2A adrenergic receptor (Homo sapiens, UniProt P08913); test: Binding affinity to alpha2A adrenoceptor (unknown origin)
[18] = target: Histamine H2 receptor (Homo sapiens) (UniProt P25021); test: Binding affinity to histamine H2 receptor (unknown origin) at 10 uM
[19] = target: Alpha-2B adrenergic receptor (Homo sapiens, UniProt P18089); test: Binding affinity to alpha2B adrenoceptor (unknown origin)
[20] = target: D(1B) dopamine receptor (Homo sapiens) (UniProt P21918); test: Binding affinity to dopamine D5 receptor (unknown origin) at 10 uM
Translocator protein = Translocator protein (Homo sapiens, UniProt P30536); test: Binding affinity to PBR (unknown origin)
[21] = target: D(4) dopamine receptor (Homo sapiens) (UniProt P21917); test: Binding affinity to dopamine D4 receptor (unknown origin) at 10 uM
[22] = target: Beta-2 adrenergic receptor (Homo sapiens) (UniProt P07550); test: Binding affinity to beta2 adrenoceptor (unknown origin) at 10 uM
[23] = target: Delta-type opioid receptor (Homo sapiens) (UniProt P41143); test: Binding affinity to DOR (unknown origin) at 10 uM
[24] = target: Histamine H4 receptor (Homo sapiens) (UniProt Q9H3N8); test: Binding affinity to histamine H4 receptor (unknown origin) at 10 uM
[25] = target: 5-hydroxytryptamine receptor 7 (Homo sapiens) (UniProt P34969); test: Displacement of [3H]LSD from 5HT7 receptor (unknown origin) at 10 uM
[26] = target: Sodium-dependent noradrenaline transporter (Homo sapiens) (UniProt P23975); test: Binding affinity to NET (unknown origin) at 10 uM
[27] = target: D(1A) dopamine receptor (Homo sapiens) (UniProt P21728); test: Binding affinity to dopamine D1 receptor (unknown origin) at 10 uM
[28] = target: Muscarinic acetylcholine receptor M5 (Homo sapiens) (UniProt P08912); test: Binding affinity to muscarinic M5 receptor (unknown origin) at 10 uM
[29] = target: Muscarinic acetylcholine receptor M3 (Homo sapiens) (UniProt P20309); test: Binding affinity to muscarinic M3 receptor (unknown origin) at 10 uM

Sequence of 5-hydroxytryptamine receptor 6 (P50406 whole entry): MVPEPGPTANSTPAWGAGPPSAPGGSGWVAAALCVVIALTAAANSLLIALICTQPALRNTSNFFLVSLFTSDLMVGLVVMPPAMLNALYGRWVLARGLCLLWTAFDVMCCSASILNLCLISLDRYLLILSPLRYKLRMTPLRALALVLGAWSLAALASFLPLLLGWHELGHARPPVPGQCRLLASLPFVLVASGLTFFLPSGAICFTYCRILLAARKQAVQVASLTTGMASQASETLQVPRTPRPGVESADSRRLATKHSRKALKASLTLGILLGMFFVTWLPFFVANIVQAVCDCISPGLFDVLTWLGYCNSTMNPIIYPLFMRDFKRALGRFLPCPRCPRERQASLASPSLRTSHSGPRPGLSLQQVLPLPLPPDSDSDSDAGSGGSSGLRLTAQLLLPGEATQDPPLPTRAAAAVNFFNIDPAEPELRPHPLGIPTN
Sequence of 5-hydroxytryptamine receptor 1D (Homo sapiens) (P28221 whole entry): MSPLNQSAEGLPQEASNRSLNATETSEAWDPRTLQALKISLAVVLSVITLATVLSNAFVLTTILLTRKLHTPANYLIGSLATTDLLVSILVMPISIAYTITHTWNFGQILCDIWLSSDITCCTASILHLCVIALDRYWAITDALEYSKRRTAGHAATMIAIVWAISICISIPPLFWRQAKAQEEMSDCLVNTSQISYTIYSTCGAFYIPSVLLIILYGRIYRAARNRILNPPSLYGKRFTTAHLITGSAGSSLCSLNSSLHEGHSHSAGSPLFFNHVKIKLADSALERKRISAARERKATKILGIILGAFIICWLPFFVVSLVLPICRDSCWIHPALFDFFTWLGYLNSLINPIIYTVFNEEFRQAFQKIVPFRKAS
Sequence of Alpha-2C adrenergic receptor (P18825 whole entry): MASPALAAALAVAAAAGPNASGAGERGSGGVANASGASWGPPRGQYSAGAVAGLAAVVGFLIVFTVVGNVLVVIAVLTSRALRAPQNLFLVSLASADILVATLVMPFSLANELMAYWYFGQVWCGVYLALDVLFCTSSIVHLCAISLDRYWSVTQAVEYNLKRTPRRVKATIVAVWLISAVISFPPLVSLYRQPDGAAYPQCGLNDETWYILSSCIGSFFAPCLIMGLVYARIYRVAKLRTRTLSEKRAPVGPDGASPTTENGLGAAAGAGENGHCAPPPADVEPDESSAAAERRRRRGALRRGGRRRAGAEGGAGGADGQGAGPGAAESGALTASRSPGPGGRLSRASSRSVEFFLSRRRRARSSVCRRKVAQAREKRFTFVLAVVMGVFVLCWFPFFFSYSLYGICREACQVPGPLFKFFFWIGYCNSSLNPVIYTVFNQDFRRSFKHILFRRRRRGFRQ
Sequence of Muscarinic acetylcholine receptor M5 (Homo sapiens) (P08912 whole entry): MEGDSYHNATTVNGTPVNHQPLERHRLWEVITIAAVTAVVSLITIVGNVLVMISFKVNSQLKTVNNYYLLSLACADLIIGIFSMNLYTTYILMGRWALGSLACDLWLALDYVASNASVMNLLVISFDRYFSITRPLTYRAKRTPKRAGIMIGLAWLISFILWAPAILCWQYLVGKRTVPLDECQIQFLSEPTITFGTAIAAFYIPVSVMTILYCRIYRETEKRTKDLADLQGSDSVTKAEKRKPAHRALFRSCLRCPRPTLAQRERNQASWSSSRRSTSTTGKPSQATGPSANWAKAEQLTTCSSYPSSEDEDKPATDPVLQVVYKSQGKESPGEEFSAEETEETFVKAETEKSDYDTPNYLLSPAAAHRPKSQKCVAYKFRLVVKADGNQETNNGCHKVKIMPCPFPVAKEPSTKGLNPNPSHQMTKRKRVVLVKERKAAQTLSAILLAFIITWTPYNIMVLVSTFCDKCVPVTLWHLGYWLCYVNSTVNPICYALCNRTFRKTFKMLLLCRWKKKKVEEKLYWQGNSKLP
Sequence of Muscarinic acetylcholine receptor M2 (Homo sapiens) (P08172 whole entry): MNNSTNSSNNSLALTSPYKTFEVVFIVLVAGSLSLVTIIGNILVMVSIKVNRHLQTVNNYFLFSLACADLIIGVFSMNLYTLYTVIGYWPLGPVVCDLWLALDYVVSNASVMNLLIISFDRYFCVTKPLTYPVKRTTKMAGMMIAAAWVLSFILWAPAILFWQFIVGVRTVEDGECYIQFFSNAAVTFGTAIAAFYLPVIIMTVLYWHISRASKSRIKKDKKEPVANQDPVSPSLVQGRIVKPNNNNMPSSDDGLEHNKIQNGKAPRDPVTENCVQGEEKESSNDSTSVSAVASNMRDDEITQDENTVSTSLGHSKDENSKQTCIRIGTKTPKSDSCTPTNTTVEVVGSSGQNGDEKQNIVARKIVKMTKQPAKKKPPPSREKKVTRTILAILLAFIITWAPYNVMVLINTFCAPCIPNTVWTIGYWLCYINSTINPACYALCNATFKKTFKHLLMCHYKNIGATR
Sequence of D(1B) dopamine receptor (Homo sapiens) (P21918 whole entry): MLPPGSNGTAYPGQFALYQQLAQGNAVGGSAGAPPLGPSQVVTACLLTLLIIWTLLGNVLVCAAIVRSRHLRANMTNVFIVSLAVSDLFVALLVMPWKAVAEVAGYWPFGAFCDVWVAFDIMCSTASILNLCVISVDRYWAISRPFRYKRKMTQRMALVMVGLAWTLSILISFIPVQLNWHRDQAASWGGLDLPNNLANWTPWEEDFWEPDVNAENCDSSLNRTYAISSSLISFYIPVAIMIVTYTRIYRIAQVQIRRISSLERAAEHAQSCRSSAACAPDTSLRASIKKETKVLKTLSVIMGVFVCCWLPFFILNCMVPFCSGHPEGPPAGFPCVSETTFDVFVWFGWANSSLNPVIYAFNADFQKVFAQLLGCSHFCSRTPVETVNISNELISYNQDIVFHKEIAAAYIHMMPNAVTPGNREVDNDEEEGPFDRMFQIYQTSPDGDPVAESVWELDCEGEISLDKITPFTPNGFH
Sequence of D(2) dopamine receptor (Homo sapiens) (P14416 whole entry): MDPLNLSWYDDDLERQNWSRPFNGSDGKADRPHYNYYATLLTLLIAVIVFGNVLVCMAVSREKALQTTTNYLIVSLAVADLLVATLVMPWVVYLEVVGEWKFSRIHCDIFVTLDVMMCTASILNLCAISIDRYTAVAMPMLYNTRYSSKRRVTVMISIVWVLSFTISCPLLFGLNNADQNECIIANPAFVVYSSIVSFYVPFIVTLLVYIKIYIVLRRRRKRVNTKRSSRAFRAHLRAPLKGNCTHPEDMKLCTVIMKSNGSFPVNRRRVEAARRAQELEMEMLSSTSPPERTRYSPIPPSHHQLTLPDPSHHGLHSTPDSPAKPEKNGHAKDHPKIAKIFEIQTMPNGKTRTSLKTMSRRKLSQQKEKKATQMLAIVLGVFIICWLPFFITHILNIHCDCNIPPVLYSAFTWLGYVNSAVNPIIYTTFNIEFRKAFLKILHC
Sequence of Sodium-dependent serotonin transporter (Homo sapiens) (P31645 whole entry, looked up): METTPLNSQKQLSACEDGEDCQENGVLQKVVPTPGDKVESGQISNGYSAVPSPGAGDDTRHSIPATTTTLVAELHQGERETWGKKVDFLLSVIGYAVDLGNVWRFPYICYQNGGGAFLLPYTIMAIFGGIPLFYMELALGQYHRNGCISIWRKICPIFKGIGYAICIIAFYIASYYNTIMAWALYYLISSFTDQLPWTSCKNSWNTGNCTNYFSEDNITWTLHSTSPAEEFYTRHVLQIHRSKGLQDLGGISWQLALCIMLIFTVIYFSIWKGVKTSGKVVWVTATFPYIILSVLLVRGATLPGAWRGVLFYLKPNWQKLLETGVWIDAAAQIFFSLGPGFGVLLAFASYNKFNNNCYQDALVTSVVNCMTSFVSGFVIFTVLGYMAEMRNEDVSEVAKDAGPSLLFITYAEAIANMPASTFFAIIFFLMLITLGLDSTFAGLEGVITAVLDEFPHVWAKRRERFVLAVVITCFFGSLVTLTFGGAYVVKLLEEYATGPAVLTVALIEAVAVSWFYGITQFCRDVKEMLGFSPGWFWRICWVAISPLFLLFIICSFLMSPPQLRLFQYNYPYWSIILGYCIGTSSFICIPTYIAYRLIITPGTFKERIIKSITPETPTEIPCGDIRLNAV
Sequence of Sodium-dependent dopamine transporter (Homo sapiens) (Q01959 whole entry): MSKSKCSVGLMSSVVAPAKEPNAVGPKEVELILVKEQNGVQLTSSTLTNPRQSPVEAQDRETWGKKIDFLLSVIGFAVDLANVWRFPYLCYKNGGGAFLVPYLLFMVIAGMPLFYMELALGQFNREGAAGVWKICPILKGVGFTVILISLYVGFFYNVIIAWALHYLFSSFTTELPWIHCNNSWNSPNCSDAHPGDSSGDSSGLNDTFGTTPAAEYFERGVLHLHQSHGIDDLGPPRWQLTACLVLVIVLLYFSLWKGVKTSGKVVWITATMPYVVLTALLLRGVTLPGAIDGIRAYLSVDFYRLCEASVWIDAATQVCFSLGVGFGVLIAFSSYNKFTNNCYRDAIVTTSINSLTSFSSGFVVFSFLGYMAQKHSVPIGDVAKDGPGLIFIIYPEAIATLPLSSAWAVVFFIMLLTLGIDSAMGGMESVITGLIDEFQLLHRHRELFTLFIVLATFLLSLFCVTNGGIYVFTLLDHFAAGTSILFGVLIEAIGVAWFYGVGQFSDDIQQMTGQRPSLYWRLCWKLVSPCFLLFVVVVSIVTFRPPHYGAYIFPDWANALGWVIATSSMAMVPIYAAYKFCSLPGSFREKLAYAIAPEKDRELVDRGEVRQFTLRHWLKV
Sequence of D(3) dopamine receptor (Homo sapiens) (P35462 whole entry): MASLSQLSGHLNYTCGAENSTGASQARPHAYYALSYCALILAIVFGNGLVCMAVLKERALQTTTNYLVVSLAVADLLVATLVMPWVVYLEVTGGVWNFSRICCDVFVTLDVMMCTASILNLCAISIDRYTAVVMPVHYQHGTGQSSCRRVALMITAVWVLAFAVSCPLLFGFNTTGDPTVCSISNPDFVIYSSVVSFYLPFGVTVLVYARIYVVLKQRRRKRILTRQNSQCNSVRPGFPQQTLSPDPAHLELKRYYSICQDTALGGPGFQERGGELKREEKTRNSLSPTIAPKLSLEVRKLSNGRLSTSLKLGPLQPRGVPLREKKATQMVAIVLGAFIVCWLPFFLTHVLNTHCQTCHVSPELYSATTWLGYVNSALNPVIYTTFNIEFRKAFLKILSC

COc1cc2c3c(c1OC)-c1cc4c(cc1CC3N(C)CC2c1ccccc1)OCO4 (stereo unspecified)
inhibition [1]: 22.6% | inhibition [2]: < 50% | inhibition [3]: < 50% | inhibition [4]: 8% | inhibition (Rattus norvegicus): < 50% | inhibition [5]: 34.5% | inhibition [6]: < 50% | inhibition [7]: < 50% | inhibition [8]: < 50% | inhibition [9]: 31.9% | Ki [10]: 433 nM | Ki [11]: 627 nM | inhibition [12]: < 50% | Ki [13]: 96 nM | inhibition [14]: < 50% | inhibition [15]: < 50% | inhibition [16]: < 50% | Ki [17]: 719 nM | inhibition [18]: < 50% | Ki [19]: 3220 nM | inhibition [20]: < 50% | Ki (Translocator protein): 2900 nM | inhibition [21]: < 50% | inhibition [22]: < 50% | inhibition [23]: < 50% | inhibition [24]: < 50% | inhibition [25]: 36.1% | inhibition [26]: < 50% | inhibition [27]: < 50% | inhibition [28]: < 50% | inhibition [29]: < 50%
